33 compounds from ChEMBL document CHEMBL1157539, “Thousands of chemical starting points for antimalarial lead identification” (Nature, 2010) can be followed below.

This test relates to Plasmodium falciparum. Description: GSK_TCMDC: Inhibition of Plasmodium falciparum 3D7 in whole erythrocytes, using parasite LDH activity as an index of growth. It is filed as functional, organism-based. As to conditions: Plasmodium falciparum, 3D7.

In turn, `CN(C)C(=O)c1ccc(CN(Cc2cccc(OC(C)(C)C)c2)Cc2ccc3c(c2)OCCO3)cc1` returned an XC50 of 571 nM. The figure for `Cc1cccc(NC(=O)NC2CCN(CCCCCNC(=O)/C=C/c3ccc(Cl)c(Cl)c3)CC2)c1` is 753 nM; for `C=C1C(C(=O)OCC)=CN(CC)c2cc(O[C@@H]3CCN(C(=O)OC(C)(C)C)C3)ccc21` it is 290 nM. `Cc1ccc(NC(=O)c2ccc(Cl)cc2)cc1-c1ccc(C(=O)Nc2ccncc2)cc1` had an XC50 of 779 nM. Compound `Cc1nc(-c2cccc3c(NC(=O)N4CCc5cc6nccc(N7CCN(C)CC7)c6cc54)cccc23)no1` had an XC50 of 760 nM. For `CCCCCCN(CCCCCC)CC(O)c1cc(-c2ccc(Cl)cc2)nc2c(C)cc(C)cc12` (stereo not drawn) the value was 67.3 nM; for `O=C(Nc1ccc(Cl)c(Cl)c1)N1CCC(CNCc2cccc([N+](=O)[O-])c2)CC1`, 979 nM. In turn, `Nc1nc(N)c2c(Cl)c(CNc3cccc(C(=O)O)c3)ccc2n1` showed an XC50 of 8.88 nM. `COc1ccc2nccc([C@@H](O)CN3CCC(NCCOc4ccc(F)cc4F)CC3)c2c1` yielded an XC50 of 141 nM. For the compound `O=S(=O)(NCCN1CCCC1)c1ccc(-c2ccc(CNCc3ccsc3)cc2)s1`, the XC50 is 832 nM.

Compound `Cc1nnc(NC(=O)c2cn(-c3ccccc3)nc2-c2ccccc2C)o1` came in with an XC50 of 565 nM. Compound `O=C(Nc1cccc(N2CCC(NCCCn3ccnc3)CC2)c1)c1cccc(C(F)(F)F)c1` came in with an XC50 of 1110 nM. For `OCCN1CCN(Cc2cccc(-c3cccc(-c4nc5cc(F)ccc5[nH]4)c3)c2)CC1`, the XC50 was 706 nM. The figure for `O=C(O)CNCC(O)c1ccccc1` (stereo not drawn) is 184 nM; for `Cc1ccccc1C1CCN(C2CCC(NC(=O)/C=C/c3ccc(C(F)(F)F)cc3F)CC2)CC1` (stereo not drawn) it is 902 nM. For `CCc1ccc(C2CCN(CCCCNC(=O)c3ccc(-c4ccc(C(F)(F)F)cc4)cc3)CC2)c(OCCO)c1` the value was 410 nM; for `O=C(N[C@H]1CCN(Cc2ccc(OCCN3CCCC3)c3ccccc23)C1)c1ccc(Cl)c(Cl)c1`, 746 nM; for `N#CCCN1CCN(Cc2cccc(-c3ccc(-c4nc5cc(F)ccc5[nH]4)cc3)c2)CC1`, 599 nM. The compound `CCN(CC)CCN(Cc1ccc(-c2ccc(C(F)(F)F)cc2)cc1)C(=O)c1c[nH]c2ccc(Br)cc12` came in with an XC50 of 953 nM. For `Cc1cccc2nc(-c3ccc(-c4ccc(NC(=O)C(C)CN5CCN(C)CC5)cc4)s3)[nH]c12` (stereo not drawn) the value was 731 nM.

The compound `COc1ccc2nccc([C@@H](O)CN3CCC(CO)(NCc4cc5ccccc5o4)CC3)c2c1` yielded an XC50 of 1370 nM. The compound `CN1CCC(NCc2cccc(-c3ccc(S(=O)(=O)NCc4ccccc4)cc3)c2)CC1` gave an XC50 of 687 nM. The figure for `Cc1cccc2nc(-c3ccc(-c4cccc(NC(=O)Nc5ccc(Cl)cc5)c4)s3)[nH]c12` is 517 nM.

For the compound `Cc1cccc2nc(-c3cccc(-c4cccc(CN5CCN(c6ccc(C#N)cn6)CC5)c4)c3)[nH]c12`, the XC50 is 1160 nM.

Consider `COc1cccc(OC(C)(C)c2nc(N[C@@H](C)c3ccccc3)c3cn[nH]c3n2)c1`, for which the XC50 was 968 nM.

`COc1ccc(-c2ccc(CN(C)C3CCC(NC(=O)c4cc5ccccc5[nH]4)CC3)cc2)cn1` (stereo not drawn) returned an XC50 of 871 nM.

`CNCCN(C)C(=O)Oc1c(Cl)c(C)nc(C)c1-c1ccc(Oc2ccc(OC(F)(F)F)cc2)cc1` gave an XC50 of 127 nM. Compound `COc1ccc(Cc2nc3c(n2C(C)=O)SC(c2ccc(Cl)c(Cl)c2)=NN3C(C)=O)cc1` returned an XC50 of 809 nM.

Take `N=C(N)NC(=O)Nc1ccc(Cl)c([N+](=O)[O-])c1`: the XC50 came to 762 nM. For `Cc1cc(N(C)C)nc(Nc2ccc(NC(=O)c3c(F)cccc3F)cc2)n1` the value was 1380 nM; for `N#Cc1ccc2c(c1)CN(CCC1CCC(NC(=O)c3cc4cc(OC(F)(F)F)ccc4[nH]3)CC1)CC2` (stereo not drawn), 777 nM.

Compound `CC(C)/C(=C(/F)CN1C(=O)C(NC(=O)c2cc3ccccc3[nH]2)C(=O)N(c2ccccc2)c2ccccc21)c1ccccc1` (stereo not drawn) displayed an XC50 of 697 nM.

Turning to `Cc1cc(NCCC(=O)NCc2cccc(F)c2)nc(NCCc2ccc(F)cc2)n1`, the XC50 came to 1750 nM.
